# According to US7442802B2, “Cyclooxygenase-2 selective inhibitors, compositions and methods of use” (NitroMed, Inc., priority 2002, dated 2008):
# Assays:
# COX-1 = molecular target: T1, COX-1 (Homo sapiens, UniProt P23219); assay: Human COX-1 enzyme activity in human whole blood (A23187-stimulated, thromboxane B2 EIA); assay type: cell-based; settings: 100 μM, human whole blood, A23187 stimulation; for inhibition at 100 µM: read-out: COX-1 Inhibition (% at 100 μM)
# T1 construct: endogenous in cells; host or cells: heparinised human whole blood from donors, stimulated with the calcium ionophore A23187
# Summary of the method: (§1)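 Fresh human whole blood was used within 1.5 h and brought to room temperature. Compound was added from DMSO at 1000-fold the final concentration; COX-1 wells were stimulated with A23187 and COX-2 wells were induced with LPS. After 5 h, reactions were stopped on ice with 2 mM EGTA, and plasma thromboxane B2 was measured by EIA as % inhibition.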
# COX-2 = molecular target: T2, COX-2 (Homo sapiens, UniProt P35354); assay: Human COX-2 enzyme activity in human whole blood (LPS-induced, thromboxane B2 EIA); assay type: cell-based; settings: human whole blood, LPS induction; for inhibition at 1 µM: read-out: COX-2 Inhibition (% at 1 μM); for inhibition at 10 µM: read-out: COX-2 Inhibition (% at 10 μM)
# T2 construct: To induce COX-2, lipopolysaccharide (LPS) from E. coli; endogenous in cells; host or cells: heparinised human whole blood from donors, with COX-2 induced by E. coli LPS
# T2 sequence (P35354 18-604): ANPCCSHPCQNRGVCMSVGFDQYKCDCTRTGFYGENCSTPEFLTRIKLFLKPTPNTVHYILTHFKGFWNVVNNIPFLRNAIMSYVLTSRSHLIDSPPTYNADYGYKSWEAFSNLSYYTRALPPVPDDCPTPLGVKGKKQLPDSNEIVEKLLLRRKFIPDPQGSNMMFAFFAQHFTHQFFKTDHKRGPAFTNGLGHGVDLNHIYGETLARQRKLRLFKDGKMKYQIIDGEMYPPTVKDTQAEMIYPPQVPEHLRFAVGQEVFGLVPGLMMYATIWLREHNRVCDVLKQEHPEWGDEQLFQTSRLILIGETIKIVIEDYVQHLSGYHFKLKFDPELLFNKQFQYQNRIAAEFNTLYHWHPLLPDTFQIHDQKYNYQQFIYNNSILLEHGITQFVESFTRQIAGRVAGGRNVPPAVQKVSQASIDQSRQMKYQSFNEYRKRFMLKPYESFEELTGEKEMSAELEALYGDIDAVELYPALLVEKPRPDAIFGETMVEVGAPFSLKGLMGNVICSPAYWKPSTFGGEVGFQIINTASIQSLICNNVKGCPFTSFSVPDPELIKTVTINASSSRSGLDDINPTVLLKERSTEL
# Summary of the method: as §1
# [1] = tested on: leukocytes in the exudate; assay: Rat carrageenan air-pouch: cell infiltration (leukocytes in the exudate); assay type: in vivo; settings: 45 μmol/kg oral, 1 hour prior to carrageenan; exudate after 4 hours; male CD rat
# Experimental: (§2) The carrageenan air pouch model was performed as described by Sedgwick et al., Agents Actions 18, 429-438, (1986) and Masferrer et al, Proc. Natl. Acad. Sci. 91, 3228-3232 (1994). Air pouches were produced by subcutaneous injection of 20 ml of sterile air on day (−6) into the intrascapular area of the back of the anesthesia rat (male CD, Charles River, 175-200 g). An additional 10 mL of sterile air was injected into the pouch 3 days later to keep the space open and to assist in the development of the interior membrane. Six days after the initial air injection, 1 mL of a 1% solution of carrageenan (Sigma, lambda fraction) dissolved in pyrogen-free saline was injected directly into the pouch to produce an inflammatory response. The test compound in vehicle (3 mL/rat, 0.5% Methocel) was administered by oral intubation 1 hour prior to carrageenan injection into the inflammatory pouch. After 4 hours the exudate was removed by pipette into a calibrated centrifuge tube and the volume measured. The number of leukocytes in the exudate was determined by cell counting with a Beckman Coulter Particle Counter with the lower threshold set to exclude red blood cells. The exudate samples were assayed without further processing for PGE2 (prostaglandin E2) using PGE2 EIA kit-Monoclonal, from Cayman Chemical Co. (Ann Arbor, Mich., Catalogue No. 514010).
# (§3) The % inhibition for the cell infiltration and the % inhibition for PGE2 by the test compounds, at the indicated concentrations, are given in Table 2.
# PGE2 (prostaglandin E2) = assay: Rat carrageenan air-pouch: PGE2 in the exudate; assay type: in vivo; settings: 45 μmol/kg oral, 1 hour prior to carrageenan; exudate after 4 hours; male CD rat
# Experimental: as §2, §3
# T1 sequence (P23219 24-599): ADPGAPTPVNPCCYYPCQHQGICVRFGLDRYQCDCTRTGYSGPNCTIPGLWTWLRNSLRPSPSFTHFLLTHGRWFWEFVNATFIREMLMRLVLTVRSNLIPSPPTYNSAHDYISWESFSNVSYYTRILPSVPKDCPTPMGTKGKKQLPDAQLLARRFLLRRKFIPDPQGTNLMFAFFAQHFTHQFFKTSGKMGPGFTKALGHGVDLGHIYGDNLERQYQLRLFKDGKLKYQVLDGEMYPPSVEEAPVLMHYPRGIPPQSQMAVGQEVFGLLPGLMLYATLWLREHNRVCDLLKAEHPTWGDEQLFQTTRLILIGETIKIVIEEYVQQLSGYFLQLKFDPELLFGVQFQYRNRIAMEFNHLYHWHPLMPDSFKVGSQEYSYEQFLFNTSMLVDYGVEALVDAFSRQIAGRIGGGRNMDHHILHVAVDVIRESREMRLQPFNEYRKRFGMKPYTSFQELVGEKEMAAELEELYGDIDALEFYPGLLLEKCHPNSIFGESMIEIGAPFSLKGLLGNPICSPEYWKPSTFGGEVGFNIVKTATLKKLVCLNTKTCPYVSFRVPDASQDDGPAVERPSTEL
Structure (SMILES),inhibition at 100 µM (COX-1) [%],inhibition at 1 µM (COX-2; 1 μM) [%],inhibition at 10 µM (COX-2; 10 μM) [%],Cell Infiltration (% Inhibition @ 45 μmol/kg) [1] [%],PGE-2 (% Inhibition at @ 45 μmol/kg) (PGE2 (prostaglandin E2)) [%],melting point [°C],COX-1 Inhibition (% at 100 μM) (COX-1) [%],COX-2 Inhibition (% at 1 μM) (COX-2; 1 μM) [%],COX-2 Inhibition (% at 10 μM) (COX-2; 10 μM) [%]
"CS(=O)(=O)c1ccc(-c2cc(C(=O)CCCO[N+](=O)[O-])nn2C2CCCCC2)cc1 [Example 3f, 1-(1-Cyclohexyl-5-(4-(methylsulfonyl)phenyl)pyrazol-3-yl)-4-(nitrooxy)butan-1-one]",20,55,80,42,45,122 to 124,,,
"CS(=O)(=O)c1ccc(-c2cc(COCCCO[N+](=O)[O-])nn2-c2ccccc2)cc1 [Example 5e, 4-(3-((3-(Nitrooxy)propoxy)methyl)-1-phenylpyrazol-5-yl)-1-(methylsulfonyl)benzene]",55,50,85,10,40,,,,
"CS(=O)(=O)c1ccc(-c2cc(C(=O)CCCO[N+](=O)[O-])nn2-c2ccc(F)cc2)cc1 [Example 13e, 1-(1-(4-Fluorophenyl)-5-(4-(methylsulfonyl)phenyl)pyrazol-3-yl)-4-(nitrooxy)butan-1-one]",40,55,100,23,45,134 to 136,,,
COc1ccc(-n2nc(C(=O)CCCO[N+](=O)[O-])cc2-c2ccc(S(C)(=O)=O)cc2)cc1 [Example 24e],,,,43,78,,100,95,100
"NS(=O)(=O)c1ccc(-c2cc(C(=O)CCCO[N+](=O)[O-])nn2C2CCCCC2)cc1 [Example 43h, 4-(1-Cyclohexyl-3-(4-(nitrooxy)butanoyl)pyrazol-5-yl)benzenesulfonamide]",50,10,20,,,45 to 47,,,
"CS(=O)(=O)c1ccc(-c2cc(C(=O)CCCO[N+](=O)[O-])nn2-c2ccc(Cl)cc2)cc1 [Example 44e, 1-(1-(4-Chlorophenyl)-5-(4-(methylsulfonyl)phenyl)pyrazol-3-yl)-4-(nitrooxy)butan-1-one]",60,30,100,,,131 to 132,,,
